Assay results from ChEMBL document CHEMBL1152339, “Use of the in vivo hollow fiber assay in natural products anticancer drug discovery” (J Nat Prod, 2009).

Key:
Assay type in all cases: functional
[1] = system: MCF7; test: Growth inhibition of human MCF7 cells xenografted in NCr nu/nu mouse at 25 to 100 mg/kg, sc once daily administered from day 3 to 6 after implantation measured on day 7 by MTT-based hollow-fiber test; details: dose mg/kg 3-6; route subcutaneous
[2] = system: SK-MEL-2; test: Growth inhibition of human SK-MEL-2 cells xenografted in NCr nu/nu mouse at 25 to 100 mg/kg, sc once daily administered from day 3 to 6 after implantation measured on day 7 by MTT-based hollow-fiber test; details: dose mg/kg 3-6; route subcutaneous
[3] = system: SW626; test: Growth inhibition of human SW626 cells xenografted in NCr nu/nu mouse at 25 to 100 mg/kg, ip once daily administered from day 3 to 6 after implantation measured on day 7 by MTT-based hollow-fiber test; details: dose mg/kg 3-6; route intraperitoneal
[4] = system: SW626; test: Growth inhibition of human SW626 cells xenografted in ip dosed NCr nu/nu mouse administered once daily from day 3 to 6 after implantation measured on day 7 by MTT-based hollow-fiber test
[5] = system: SK-MEL-2; test: Growth inhibition of human SK-MEL-2 cells xenografted in ip dosed NCr nu/nu mouse administered once daily from day 3 to 6 after implantation measured on day 7 by MTT-based hollow-fiber test
[6] = system: MCF7; test: Growth inhibition of human MCF7 cells xenografted in ip dosed NCr nu/nu mouse administered once daily from day 3 to 6 after implantation measured on day 7 by MTT-based hollow-fiber test
[7] = system: SW626; test: Growth inhibition of human SW626 cells xenografted in NCr nu/nu mouse at 25 to 100 mg/kg, sc once daily administered from day 3 to 6 after implantation measured on day 7 by MTT-based hollow-fiber test; details: dose mg/kg 3-6; route subcutaneous
[8] = system: MCF7; test: Growth inhibition of human MCF7 cells xenografted in NCr nu/nu mouse at 25 to 100 mg/kg, ip once daily administered from day 3 to 6 after implantation measured on day 7 by MTT-based hollow-fiber test; details: dose mg/kg 3-6; route intraperitoneal
[9] = system: LNCaP; test: Growth inhibition of human LNCAP cells xenografted in NCr nu/nu mouse at 25 to 100 mg/kg, sc once daily administered from day 3 to 6 after implantation measured on day 7 by MTT-based hollow-fiber test; details: route subcutaneous
[10] = system: LNCaP; test: Growth inhibition of human LNCAP cells xenografted in NCr nu/nu mouse at 25 to 100 mg/kg, ip once daily administered from day 3 to 6 after implantation measured on day 7 by MTT-based hollow-fiber test; details: route intraperitoneal
[11] = system: KB; test: Growth inhibition of human KB cells xenografted in NCr nu/nu mouse at 25 to 100 mg/kg, sc once daily administered from day 3 to 6 after implantation measured on day 7 by MTT-based hollow-fiber test; details: route subcutaneous
[12] = system: SK-MEL-2; test: Growth inhibition of human SK-MEL-2 cells xenografted in NCr nu/nu mouse at 25 to 100 mg/kg, ip once daily administered from day 3 to 6 after implantation measured on day 7 by MTT-based hollow-fiber test; details: dose mg/kg 3-6; route intraperitoneal
[13] = system: KB; test: Growth inhibition of human KB cells xenografted in NCr nu/nu mouse at 25 to 100 mg/kg, ip once daily administered from day 3 to 6 after implantation measured on day 7 by MTT-based hollow-fiber test; details: route intraperitoneal
[14] = system: LNCaP; test: Growth inhibition of human LNCAP cells xenografted in ip dosed NCr nu/nu mouse administered once daily from day 3 to 6 after implantation measured on day 7 by MTT-based hollow-fiber test
[15] = system: MCF7; test: Growth inhibition of human MCF7 cells xenografted in NCr nu/nu mouse at 6.25 to 50 mg/kg, sc once daily administered from day 3 to 6 after implantation measured on day 7 by MTT-based hollow-fiber test; details: dose mg/kg 3-6; route subcutaneous
[16] = system: MCF7; test: Growth inhibition of human MCF7 cells xenografted in NCr nu/nu mouse at 6.25 to 50 mg/kg, ip once daily administered from day 3 to 6 after implantation measured on day 7 by MTT-based hollow-fiber test; details: dose mg/kg 3-6; route intraperitoneal
[17] = system: Col2; test: Growth inhibition of human Col2 cells xenografted in ip dosed NCr nu/nu mouse administered once daily from day 3 to 6 after implantation measured on day 7 by MTT-based hollow-fiber test
[18] = system: KB; test: Growth inhibition of human KB cells xenografted in NCr nu/nu mouse at 0.195 to 1.56 mg/kg, ip once daily administered from day 3 to 6 after implantation measured on day 7 by MTT-based hollow-fiber test; details: route intraperitoneal
[19] = system: LNCaP; test: Growth inhibition of human LNCAP cells xenografted in NCr nu/nu mouse at 0.195 to 1.56 mg/kg, sc once daily administered from day 3 to 6 after implantation measured on day 7 by MTT-based hollow-fiber test; details: route subcutaneous
[20] = system: LNCaP; test: Growth inhibition of human LNCAP cells xenografted in NCr nu/nu mouse at 0.195 to 1.56 mg/kg, ip once daily administered from day 3 to 6 after implantation measured on day 7 by MTT-based hollow-fiber test; details: route intraperitoneal
[21] = system: KB; test: Growth inhibition of human KB cells xenografted in NCr nu/nu mouse at 0.195 to 1.56 mg/kg, sc once daily administered from day 3 to 6 after implantation measured on day 7 by MTT-based hollow-fiber test; details: route subcutaneous
[22] = system: Col2; test: Growth inhibition of human Col2 cells xenografted in NCr nu/nu mouse at 0.195 to 1.56 mg/kg, sc once daily administered from day 3 to 6 after implantation measured on day 7 by MTT-based hollow-fiber test; details: route subcutaneous
[23] = system: Col2; test: Growth inhibition of human Col2 cells xenografted in NCr nu/nu mouse at 0.195 to 1.56 mg/kg, ip once daily administered from day 3 to 6 after implantation measured on day 7 by MTT-based hollow-fiber test; details: route intraperitoneal

CO[C@@]12CC[C@@]3(C)[C@@](CC[C@@H]4[C@@]5(C)CCC[C@]43OC5=O)(C1)C(=O)C2=O
growth inhibition (GI) [1]: 0%
growth inhibition (GI) [2]: 11%
growth inhibition (GI) [3]: 0%
ED50 [4]: 0.58 µM
ED50 [5]: 1.2 µM
ED50 [6]: 0.87 µM
growth inhibition (GI) [7]: 16%
growth inhibition (GI) [8]: 34%
growth inhibition (GI) [9]: 0%
growth inhibition (GI) [10]: 50%
growth inhibition (GI) [11]: 6%
growth inhibition (GI) [12]: 15%
growth inhibition (GI) [13]: 21%
ED50 [14]: 1.2 µM

C[C@]12CC[C@]3(O)C[C@@]1(CC[C@@H]1[C@@]4(C)CCC[C@]12OC4=O)C(=O)C3=O
growth inhibition (GI) [9]: 0%
growth inhibition (GI) [10]: 0%
growth inhibition (GI) [11]: 0%
growth inhibition (GI) [13]: 0%
ED50 [14]: 4.5 µM

CCCCCCCCCCCCC[C@@H]1C[C@@H](O)C[C@]2(CCC3(C=CC(=O)C=C3)O2)O1 [ACULEATIN A]
growth inhibition (GI) [15]: 0%
growth inhibition (GI) [16]: 10%

CC(=O)O[C@@H]1O[C@@H]([C@H]2c3cccc(O)c3C(=O)c3c(O)cc(C)cc32)[C@H](O)[C@@H](O)[C@H]1O [ALVARADOIN E]
ED50 [17]: 0.23 µM
growth inhibition (GI) [18]: 40%
growth inhibition (GI) [19]: 10%
growth inhibition (GI) [20]: 60%
growth inhibition (GI) [21]: 5%
growth inhibition (GI) [22]: 6%
ED50 [14]: 0.14 µM
growth inhibition (GI) [23]: 31%
